Measurements from patent publication US20180024136A1, “Development of ABCG2-Sensitive Fluorescent Probe For Isolation of ABCG2low Neural Stem/Progenitor Cells” (National University of Singapore, priority 2015, published 2018).

Legend:
NS-5 cells [1] = test: DOFLA screening: live cell staining of MEF, mESC, NS5 and differentiated NS5; type: cell-based, mouse; details: 1 μM, 1 hour, NS5, D-NS5
Description: The screening platform was composed of mouse embryonic fibroblast (MEF), mouse embryonic stem cells (mESC), NS5 and differentiated NS5 (D-NS5) (FIG. 4). A derivate from the CF library was selected having eleven saturated carbon chain (CF-C11), named as compound of designation green 13 (CDg13, λabs/λem=520/553 nm; quantum yield=0.82) (FIG. 4A, Table 3). […] To characterize the subcellular target of the CDg13 probe, the image of CDg13 using confocal microscopy was analyzed. The CDg13 stained organelle was clearly merged with the staining of a molecular probe that targeted endoplasmic reticulum (ER), but not with Golgi, lysosome, and mitochondria targeted probes (FIG. 4C). The value of co-localization with ER was appeared as 0.97 on both of Pearson's Collection and Mander's overlap, whereas other organelle markers were below 0.83.
Screening of fluorescent probes of DOFL was conducted using high-throughput imaging analysis as previously described^7.
Hoechst 33342 (2 μM) and CDg13 (1 μM) were added to the cell culture medium. After incubation for 1 hour, culture media were changed with BSA-free medium to maintain CDg13 staining. […] The subcellular staining was observed under confocal microscope and their co-localizations were analyzed by Pearson's Collection and Mander's overlap using NIS-Elements software of Eclipse Ti microscope (Nikon).

NS-5 cells [2] = test: Subcellular co-localization with organelle trackers by confocal microscopy; type: cell-based, mouse
Description: Hoechst 33342 (2 μM) and CDg13 (1 μM) were added to the cell culture medium. After incubation for 1 hour, culture media were changed with BSA-free medium to maintain CDg13 staining. The organelle specific chemical probes, ER-Tracker™ Red, BODIPY® TR Ceramide, LysoTracker® Red DND-99 and MitoTracker® Deep Red FM, were used to stain endoplasmic reticulum, Golgi apparatus, lysosome and mitochondria, respectively according to manufacturer's instructions (Molecular Probe). The subcellular staining was observed under confocal microscope and their co-localizations were analyzed by Pearson's Collection and Mander's overlap using NIS-Elements software of Eclipse Ti microscope (Nikon).
NS-5 cells stained with CDg13, Hoechst33342 and/or organelle markers were observed using A1R+si confocal microscope (Nikon) within 1 hour after staining. The live NS-5 cells were loaded into a pre-heated plate with supplemented 5% CO2. Fast scanning less than 250 ms with 4 times scan were used to prevent phototoxicity onto the cells.

[3] = system: neurospheres from E14.5 mouse embryonic brain; test: Neuronal differentiation of primary neurospheres (Tuj1/GFAP immunostaining); type: cell-based; details: neurospheres from sorted cells, 150 per group
Description: All animal experiments were approved by the Biomedical Research Council Singapore, Institutional Animal Care and Use Committee (IACUC). E14.5 embryos were obtained from C57BL/6 pregnant mice. Cerebral cortices were removed and triturated into single-cell suspension by digestion of dissected tissues with StemPro® Accutase® (Invitrogen) and filtered through 40 μm nylon mesh. Dissociated cells were seeded at a density of 1×10^3 cells/cm^2 in neurosphere growth medium [DMEM/F12 supplemented with 2% B27 (without vitamin A), bFGF (10 ng/ml), EGF (20 ng/ml), 1× anti-anti]. All the cell culture components were from Invitrogen. Passaging of neurosphere was conducted through single cell dissociation of neurospheres as described above. […]
More than a hundred of differentiated neurospheres were fixed in paraformaldehyde (4%, w/v) for 15 min, permeabilized in Triton X-100 (0.1% v/v), and blocked with BSA (3% w/v) for 1 hour. […] The existence of clear Tuj1 positive cells inside a differentiated neurosphere were counted as neuron-contained neurospheres. Neuronal clumps were counted if more than 10 of nuclei of neuronal cells are packaged each other. Neurite outgrowth of Tuj1 positive cells were measured using neurite outgrowth module parameter of MetaXpress ([…]) with maximum width of 1 μm. The phases with high neurite outgrowth were selected and counted at least 300 cells.

human KB3-1 cells = test: MTS viability assay on KB3-1 cells; type: cell-based; details: 48 h
ABCB1 = ABCB1 (Homo sapiens, UniProt P08183); test: in vitro
ABCB1, sequence (P08183 whole entry): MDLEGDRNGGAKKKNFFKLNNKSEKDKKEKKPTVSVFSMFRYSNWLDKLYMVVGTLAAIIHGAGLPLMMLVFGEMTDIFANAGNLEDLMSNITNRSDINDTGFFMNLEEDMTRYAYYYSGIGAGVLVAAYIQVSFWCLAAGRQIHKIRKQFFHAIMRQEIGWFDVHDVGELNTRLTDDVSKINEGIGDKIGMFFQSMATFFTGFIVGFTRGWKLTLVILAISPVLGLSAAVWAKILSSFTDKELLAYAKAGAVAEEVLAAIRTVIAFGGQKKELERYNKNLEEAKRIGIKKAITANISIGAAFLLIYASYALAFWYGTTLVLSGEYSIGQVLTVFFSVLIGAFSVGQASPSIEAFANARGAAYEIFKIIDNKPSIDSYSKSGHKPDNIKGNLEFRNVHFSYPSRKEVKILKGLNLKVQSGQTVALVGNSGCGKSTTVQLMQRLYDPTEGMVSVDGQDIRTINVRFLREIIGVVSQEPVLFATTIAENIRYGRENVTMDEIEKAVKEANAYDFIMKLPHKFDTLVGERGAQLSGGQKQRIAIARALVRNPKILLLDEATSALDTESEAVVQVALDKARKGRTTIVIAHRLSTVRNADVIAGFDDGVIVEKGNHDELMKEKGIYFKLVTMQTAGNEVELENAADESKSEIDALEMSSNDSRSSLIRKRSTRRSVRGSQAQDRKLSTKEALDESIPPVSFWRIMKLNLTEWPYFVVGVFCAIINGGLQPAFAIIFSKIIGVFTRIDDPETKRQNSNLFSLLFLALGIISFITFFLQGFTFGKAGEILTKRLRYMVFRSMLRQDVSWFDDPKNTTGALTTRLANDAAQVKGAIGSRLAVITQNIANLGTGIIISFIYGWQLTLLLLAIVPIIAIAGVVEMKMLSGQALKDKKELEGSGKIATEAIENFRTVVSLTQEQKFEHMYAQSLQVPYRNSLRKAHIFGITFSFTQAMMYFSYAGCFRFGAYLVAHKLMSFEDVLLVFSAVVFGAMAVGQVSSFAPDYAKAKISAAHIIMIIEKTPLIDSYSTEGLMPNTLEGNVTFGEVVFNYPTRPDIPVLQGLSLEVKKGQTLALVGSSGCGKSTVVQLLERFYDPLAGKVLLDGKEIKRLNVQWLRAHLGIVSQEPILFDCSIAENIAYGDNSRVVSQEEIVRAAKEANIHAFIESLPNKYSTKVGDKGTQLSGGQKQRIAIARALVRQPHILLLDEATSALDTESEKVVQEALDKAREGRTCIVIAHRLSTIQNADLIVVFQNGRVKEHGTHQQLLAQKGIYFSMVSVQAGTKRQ

ABCG2 = molecular target: T1, ABCG2 (Homo sapiens, UniProt Q9UNQ0); test: Probe response to Ko143 in RPMI-8226 cells; type: cell-based; parameters: pre-treatment of RPMI-8226 cells with or without Ko143; endogenous in cells; host or cells: RPMI-8226; details: RPMI-8226, Ko143 pre-treatment, 1 μM probe
T1 sequence (Q9UNQ0 1-655): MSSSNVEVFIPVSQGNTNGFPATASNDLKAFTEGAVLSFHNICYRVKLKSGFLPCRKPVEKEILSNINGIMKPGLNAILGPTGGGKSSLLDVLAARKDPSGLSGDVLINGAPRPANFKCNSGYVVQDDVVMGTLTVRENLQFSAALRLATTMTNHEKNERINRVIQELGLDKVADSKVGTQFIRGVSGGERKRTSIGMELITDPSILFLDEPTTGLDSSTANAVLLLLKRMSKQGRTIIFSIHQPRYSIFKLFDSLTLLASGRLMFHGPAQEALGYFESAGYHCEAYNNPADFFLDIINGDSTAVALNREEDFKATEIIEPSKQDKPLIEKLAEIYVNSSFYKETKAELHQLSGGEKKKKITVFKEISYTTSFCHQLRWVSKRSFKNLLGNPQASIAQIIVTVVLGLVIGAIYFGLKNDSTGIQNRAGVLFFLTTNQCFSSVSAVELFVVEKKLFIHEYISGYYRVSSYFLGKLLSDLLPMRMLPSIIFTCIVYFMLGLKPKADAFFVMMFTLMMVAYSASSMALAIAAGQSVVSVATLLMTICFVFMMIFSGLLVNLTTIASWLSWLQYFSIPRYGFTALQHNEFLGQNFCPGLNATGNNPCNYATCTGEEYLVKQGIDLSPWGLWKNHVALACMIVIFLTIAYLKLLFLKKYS
Description: FIGS. 11A-11B show CDg13 has high sensitivity to ABCG2: (A) and (B) pre-treatment of RPMI-8226 cells with or without Ko143 were conducted for 30 minutes prior to staining with 1 μM of CDg13, pheophorbide A (PhA) or CDr3, fold change of fluorescence intensity from 3-6 independent experiments (A) (values are means±SEM, *, p<0.05; **, p<0.01), and representative fluorescence histogram of CDg13 and PhA (B) (unstained, 0, 100, 1,000 and 5,000 nM of Ko143 treated group is presented).

SMILES: CCCCCCCCCN(CCCCCCCCC)C(=O)c1ccc(-c2c3cc(Cl)c(=O)cc-3oc3cc(O)c(Cl)cc23)cc1 [CDg13]
- cell type staining selectivity (NS-5 cells [1]): preferentially stains undifferentiated NS-5 cells, a NSPC line, but not other cell types
- co-localization with other organelle markers (NS-5 cells [2]; Golgi, lysosome, mitochondria trackers): below 0.83
- co-localization with ER (Pearson's Collection and Mander's overlap) (NS-5 cells [2]; live NS-5 cells, ER tracker): 0.97
- neurospheres differentiated to neuron in the whole spheres [3]: 95.3%
- toxicity (human KB3-1 cells; 1 to 10 μM): No toxicity was observed
- concentration at which cells started dying (human KB3-1 cells): 50 µM
- fold induction at 1 h, 10 µM (ABCB1): 1.5
- sensitivity of response to ABCG2 (ABCG2): higher sensitivity and produced more consistent data than PhA
